Measured values published in patent US20220089602A1, “COMPOUNDS THAT INDUCE FERROPTIC CELL DEATH” (The Board of Trustees of the University of Illinois, priority 2019, published 2022).

Tests used:
GSTO1 = target: T1, GSTO1 (Homo sapiens, UniProt P78417); assay: Biotin-streptavidin pulldown with P29, competition by ferroptocide, LC/LC-MS/MS; assay type: binding; conditions: DMSO/ferroptocide spectral count ratio of P29-labeled enriched proteins
T1 construct: endogenous in cells; host or cells: HCT 116 (and ES-2) cells
T1 sequence (P78417 whole entry): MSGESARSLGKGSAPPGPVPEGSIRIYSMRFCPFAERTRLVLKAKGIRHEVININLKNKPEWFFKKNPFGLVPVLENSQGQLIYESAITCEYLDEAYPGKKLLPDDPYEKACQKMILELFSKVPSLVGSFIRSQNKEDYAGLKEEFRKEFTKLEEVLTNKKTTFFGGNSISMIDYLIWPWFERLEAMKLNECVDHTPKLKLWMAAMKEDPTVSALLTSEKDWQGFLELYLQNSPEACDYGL
Experimental: (§1) ES-2 and HCT 116 (20×10^6 cells/flask) were plated in T175 flasks and treated with DMSO or 20 µM ferroptocide for 1 hr followed by treatment with 20 μM P29 for 1 hr. Cells were lysed via sonication (6500 g, 4 min) in DPBS and the soluble proteome was isolated after […] (45000 g, 45 min). Bradford assay was used to determine protein concentration. The soluble protein lysates in DPBS (pH 7.4) (500 μL, 2 mg/mL) were treated with biotin-azide (100 μM, 50× stock in DMSO), TCEP (1 mM, 50× fresh stock in water), TBTA ligand (100 μM, 17× stock in DMSO:t-butanol=1:4), and copper(II) sulfate (1 mM, 50× stock in water) followed by incubation at r.t. for 1 hr. Samples were centrifuged (6500 g, 4 min, 4° C.) and the supernatant was discarded. The pellets were resuspended in cold methanol by sonication (2×) and then were solubilized in DPBS containing 1.2% SDS via sonication and heating (90° C., 5 min). A final SDS concentration of 0.2% was achieved after addition of 5 mL of DPBS to the SDS-solubilized proteome samples. The solution was incubated overnight at 4° C. with 100 μL of streptavidin-agarose beads (ThermoFisher, washed 3× with DPBS to remove storage buffer). Samples were rotated at 22° C. for 2 hr before being washed by 5 mL 0.2% SDS/DPBS, 3×5 mL DPBS, and 3×5 mL water. The beads were pelleted by centrifugation (1400×g, 3 min) between washes.
(§2) The washed beads were suspended in 500 μL of 6 M urea/DPBS and 10 mM DTT (from 20× stock in water) and heated for 20 min on a 65° C. heat block. Upon addition of iodoacetamide (20 mM from 50× stock in water), samples were allowed to react at 37° C. for 30 min while shaking. Following reduction and alkylation, the beads were pelleted by centrifugation and resuspended in 200 μL of 2 M urea/DPBS, 1 mM CaCl2) (100× stock in water), and sequencing-grade trypsin (2 μg). The bead digestion occurred overnight at 37° C. while shaking. Next day, the beads were pelleted by centrifugation and washed with 2×50 μL water. The washes were combined with the supernatant from the trypsin digestion step, and after addition of formic acid (15 μL) to each sample, they were stored at −20° C. until mass spectrometry analysis.
(§3) LC/LC-MS/MS analysis was performed on an LTQ-Orbitrap Discovery mass spectrometer (ThermoFisher) coupled to an Agilent 1200 series HPLC. Peptide digests were pressure loaded onto a 250 m fused silica desalting column packed with 4 cm of Aqua C18 reverse phase resin (Phenomenex). The peptides were eluted onto a biphasic column (100 m fused silica with a 5, tip, packed with 10 cm C18 and 4 cm Partisphere strong cation exchange resin (SCX, Whatman) using a gradient 5-100% Buffer B in Buffer A (Buffer A: 95% water, 5% acetonitrile, 0.1% formic acid; Buffer B: 20% water, 80% acetonitrile, 0.1% formic acid). The peptides were then eluted from the SCX onto the C18 resin and into the mass spectrometer using 4 salt steps previously described (Nat. Protoc. 2, 1414-1425, (2007)). The flow rate through the column was set to ˜0.25 μL/min and the spray voltage was set to 2.75 kV. One full MS scan (FTMS) (400-1800 MW) was followed by 8 data dependent scans (ITMS) of the n^th most intense ions. The tandem MS data were searched using the SEQUEST algorithm using a concatenated target/decoy variant of the human UniProt database. A static modification of +57.02146 on cysteine was specified to account for alkylation by iodoacetamide. MS2 spectra matches were assembled into protein identifications and filtered using DTASelect2.0 to generate a list of protein hits with a peptide false-discovery rate of 5%. The mass spectrometry proteomics data have been deposited to the ProteomeXchange Consortium via the PRIDE [1] partner repository with the dataset identifier PXD012805.

KEAP1 = target: T2, KEAP1 (Homo sapiens, UniProt Q14145); assay: as above; assay type: binding; conditions: DMSO/ferroptocide spectral count ratio of P29-labeled enriched proteins
T2 construct: endogenous in cells; host or cells: HCT 116 (and ES-2) cells
T2 sequence (Q14145 whole entry): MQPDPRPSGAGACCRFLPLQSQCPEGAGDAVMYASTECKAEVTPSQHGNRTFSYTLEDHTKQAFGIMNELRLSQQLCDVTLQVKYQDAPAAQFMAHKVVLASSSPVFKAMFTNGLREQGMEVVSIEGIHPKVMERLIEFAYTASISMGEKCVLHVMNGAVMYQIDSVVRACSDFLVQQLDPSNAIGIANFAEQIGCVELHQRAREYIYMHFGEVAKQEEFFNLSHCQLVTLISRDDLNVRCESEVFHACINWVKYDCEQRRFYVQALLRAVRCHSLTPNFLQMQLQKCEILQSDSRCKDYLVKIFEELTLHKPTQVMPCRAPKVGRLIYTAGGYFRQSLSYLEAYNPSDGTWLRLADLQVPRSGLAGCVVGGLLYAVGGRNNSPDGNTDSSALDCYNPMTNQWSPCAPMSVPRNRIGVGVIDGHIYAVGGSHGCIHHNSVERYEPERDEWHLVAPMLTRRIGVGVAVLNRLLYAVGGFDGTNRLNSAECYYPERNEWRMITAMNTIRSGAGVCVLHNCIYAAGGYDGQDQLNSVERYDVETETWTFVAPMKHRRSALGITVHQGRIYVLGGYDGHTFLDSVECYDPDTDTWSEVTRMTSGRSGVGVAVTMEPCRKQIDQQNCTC
Experimental: as §1, §2, §3

PDP1 = target: T3, PDP1 (Homo sapiens, UniProt Q9P0J1); assay: as above; assay type: binding; conditions: DMSO/ferroptocide spectral count ratio of P29-labeled enriched proteins
T3 construct: endogenous in cells; host or cells: HCT 116 (and ES-2) cells
T3 sequence (Q9P0J1 72-537): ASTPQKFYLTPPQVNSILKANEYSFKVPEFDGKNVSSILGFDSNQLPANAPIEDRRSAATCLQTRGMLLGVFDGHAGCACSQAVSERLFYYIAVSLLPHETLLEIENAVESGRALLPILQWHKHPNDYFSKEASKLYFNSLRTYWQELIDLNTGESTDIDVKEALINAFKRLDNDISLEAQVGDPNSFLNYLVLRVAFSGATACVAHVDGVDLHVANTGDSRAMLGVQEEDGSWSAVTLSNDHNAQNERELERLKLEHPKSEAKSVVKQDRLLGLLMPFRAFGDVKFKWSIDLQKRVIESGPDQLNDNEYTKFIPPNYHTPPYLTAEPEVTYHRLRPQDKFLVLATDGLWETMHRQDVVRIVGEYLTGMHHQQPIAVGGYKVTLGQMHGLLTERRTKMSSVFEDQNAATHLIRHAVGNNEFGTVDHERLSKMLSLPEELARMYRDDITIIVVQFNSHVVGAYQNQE
Experimental: as §1, §2, §3

PGLS = target: T4, PGLS (Homo sapiens, UniProt O95336); assay: as above; assay type: binding; conditions: DMSO/ferroptocide spectral count ratio of P29-labeled enriched proteins
T4 construct: endogenous in cells; host or cells: HCT 116 (and ES-2) cells
T4 sequence (O95336 whole entry): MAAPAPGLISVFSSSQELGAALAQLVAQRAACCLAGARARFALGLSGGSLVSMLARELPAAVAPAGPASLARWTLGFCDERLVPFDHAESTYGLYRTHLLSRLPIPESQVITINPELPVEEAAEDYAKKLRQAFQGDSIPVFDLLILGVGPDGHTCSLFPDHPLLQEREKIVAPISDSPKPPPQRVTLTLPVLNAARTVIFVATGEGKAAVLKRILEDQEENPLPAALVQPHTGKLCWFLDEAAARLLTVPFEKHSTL
Experimental: as §1, §2, §3

PTGES2 = target: T5, PTGES2 (Homo sapiens, UniProt Q9H7Z7); assay: as above; assay type: binding; conditions: DMSO/ferroptocide spectral count ratio of P29-labeled enriched proteins
T5 construct: endogenous in cells; host or cells: HCT 116 (and ES-2) cells
T5 sequence (Q9H7Z7 whole entry): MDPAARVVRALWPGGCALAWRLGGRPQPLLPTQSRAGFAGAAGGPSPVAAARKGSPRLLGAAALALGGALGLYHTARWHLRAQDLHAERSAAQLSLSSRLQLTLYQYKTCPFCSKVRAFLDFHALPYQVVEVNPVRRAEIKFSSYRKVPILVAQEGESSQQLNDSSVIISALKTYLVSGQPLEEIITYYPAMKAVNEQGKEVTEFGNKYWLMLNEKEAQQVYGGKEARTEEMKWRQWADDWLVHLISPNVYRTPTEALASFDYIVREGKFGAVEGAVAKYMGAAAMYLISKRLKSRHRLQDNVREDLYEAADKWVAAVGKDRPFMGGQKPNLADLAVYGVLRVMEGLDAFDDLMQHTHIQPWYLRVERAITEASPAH
Experimental: as §1, §2, §3

TXN = target: T6, TXN (Homo sapiens, UniProt P10599); assay: as above; assay type: binding; conditions: DMSO/ferroptocide spectral count ratio of P29-labeled enriched proteins
T6 construct: endogenous in cells; host or cells: HCT 116 (and ES-2) cells
T6 sequence (P10599 whole entry): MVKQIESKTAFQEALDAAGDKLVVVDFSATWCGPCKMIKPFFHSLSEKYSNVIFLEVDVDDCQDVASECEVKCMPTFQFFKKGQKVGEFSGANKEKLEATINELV
Experimental: as §1, §2, §3

TXNRD1 = target: T7, TXNRD1 (Homo sapiens, UniProt Q16881); assay: as above; assay type: binding; conditions: DMSO/ferroptocide spectral count ratio of P29-labeled enriched proteins
T7 construct: HCT 116 cells were pre-treated with ferroptocide or DMSO, followed by treatment with P29; endogenous in cells; host or cells: HCT 116 (and ES-2) cells
T7 sequence (Q16881 151-649 limits assumed): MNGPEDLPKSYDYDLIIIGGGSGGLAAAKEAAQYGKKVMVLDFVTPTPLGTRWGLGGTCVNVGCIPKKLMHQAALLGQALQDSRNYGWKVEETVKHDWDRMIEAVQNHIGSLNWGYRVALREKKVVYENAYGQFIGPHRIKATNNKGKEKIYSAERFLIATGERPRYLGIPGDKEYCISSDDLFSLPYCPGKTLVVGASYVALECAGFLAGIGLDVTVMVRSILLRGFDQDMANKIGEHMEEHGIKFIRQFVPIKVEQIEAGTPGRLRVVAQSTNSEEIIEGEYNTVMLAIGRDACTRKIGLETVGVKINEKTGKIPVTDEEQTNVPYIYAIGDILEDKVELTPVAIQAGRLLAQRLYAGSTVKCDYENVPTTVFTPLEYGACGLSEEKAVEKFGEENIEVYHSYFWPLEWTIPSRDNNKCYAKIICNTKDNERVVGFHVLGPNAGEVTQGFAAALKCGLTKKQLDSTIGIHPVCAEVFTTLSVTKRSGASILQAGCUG
Experimental: as §1, §2, §3

TXNRD2 = target: T8, TXNRD2 (Homo sapiens, UniProt Q9NNW7); assay: as above; assay type: binding; conditions: DMSO/ferroptocide spectral count ratio of P29-labeled enriched proteins
T8 construct: HCT 116 cells were pre-treated with ferroptocide or DMSO, followed by treatment with P29; endogenous in cells; host or cells: HCT 116 (and ES-2) cells
T8 sequence (Q9NNW7 37-524): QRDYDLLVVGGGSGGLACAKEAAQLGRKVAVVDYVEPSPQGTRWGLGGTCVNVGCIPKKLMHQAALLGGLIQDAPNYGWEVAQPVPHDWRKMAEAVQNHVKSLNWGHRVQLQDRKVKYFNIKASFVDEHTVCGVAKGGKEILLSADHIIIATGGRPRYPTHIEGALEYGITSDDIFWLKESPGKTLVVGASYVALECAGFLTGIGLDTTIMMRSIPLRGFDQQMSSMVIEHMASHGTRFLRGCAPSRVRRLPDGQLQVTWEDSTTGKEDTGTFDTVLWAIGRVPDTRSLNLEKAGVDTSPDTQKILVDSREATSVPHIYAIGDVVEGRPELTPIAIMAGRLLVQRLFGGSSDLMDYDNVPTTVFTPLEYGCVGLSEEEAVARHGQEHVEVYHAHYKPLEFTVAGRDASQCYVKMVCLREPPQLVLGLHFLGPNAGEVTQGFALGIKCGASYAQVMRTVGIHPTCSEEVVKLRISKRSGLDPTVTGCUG
Experimental: as §1, §2, §3

TXNRD3 = target: T9, TXNRD3 (Homo sapiens, UniProt Q86VQ6); assay: as above; assay type: binding; conditions: DMSO/ferroptocide spectral count ratio of P29-labeled enriched proteins
T9 construct: endogenous in cells; host or cells: HCT 116 (and ES-2) cells
T9 sequence (Q86VQ6 whole entry): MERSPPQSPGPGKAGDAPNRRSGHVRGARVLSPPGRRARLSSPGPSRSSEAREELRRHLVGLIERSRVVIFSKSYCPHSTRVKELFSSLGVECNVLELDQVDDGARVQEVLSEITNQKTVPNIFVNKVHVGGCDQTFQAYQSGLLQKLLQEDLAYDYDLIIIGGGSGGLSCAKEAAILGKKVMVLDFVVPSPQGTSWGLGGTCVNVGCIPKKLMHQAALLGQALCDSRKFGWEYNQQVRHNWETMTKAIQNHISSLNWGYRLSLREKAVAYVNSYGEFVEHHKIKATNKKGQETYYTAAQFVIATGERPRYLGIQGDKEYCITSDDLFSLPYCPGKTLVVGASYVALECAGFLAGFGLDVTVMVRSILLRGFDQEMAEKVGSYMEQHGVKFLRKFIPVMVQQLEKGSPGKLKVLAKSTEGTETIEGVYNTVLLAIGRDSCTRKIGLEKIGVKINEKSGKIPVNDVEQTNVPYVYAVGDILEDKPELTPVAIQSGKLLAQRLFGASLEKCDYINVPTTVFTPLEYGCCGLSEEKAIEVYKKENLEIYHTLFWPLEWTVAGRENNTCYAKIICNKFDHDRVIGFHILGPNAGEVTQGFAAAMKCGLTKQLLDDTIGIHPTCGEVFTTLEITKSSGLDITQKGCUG
Experimental: as §1, §2, §3

ES-2 cells = assay: Cellular ROS production (carboxy-H2DCFDA); assay type: cell-based; conditions: 1 hr
Experimental: (§4) ES-2 and HCT 116 cells (3×10^5 cells/mL) were plated in 6-well plates. Cells were treated with DMSO, ferroptocide at the indicated concentrations, Etoposide (100 μM), TBHP (100 μM) for 1 hr and 1.5 hr respectively. Cells were washed with HBSS and incubated in the dark for 25 min with 25 μM carboxy-H2DCFDA probe. Cells were then washed 3× with HBSS and harvested at 1000×g, 3 min. After resuspension in 500 μl HBSS buffer, samples were subjected to flow cytometry to record ten thousand events per sample in FL1 channel in BD LSR II Flow Cytometer (BD Bioscience). FCS express V6 De Novo software was used to generate the histograms.

HCT 116 cells = assay: Cellular ROS production (carboxy-H2DCFDA); assay type: cell-based; conditions: 1.5 hr
Experimental: as §4

C[C@@H]1CC[C@@]23C[C@H](O)C(=O)[C@@]2(O)[C@]1(C)[C@H](OC(=O)CCl)C[C@@H](C1=CCn2c(=O)n(-c4ccccc4)c(=O)n2C1)[C@@H]3C [Compound P18, ferroptocide]
Fold Change (GSTO1): 3.6
Fold Change (KEAP1): 3.1
Fold Change (PDP1): 3.7
Fold Change (PGLS): 2.7
Fold Change (PTGES2): 18
Fold Change (TXN): 11.1
Fold Change (TXNRD1): 4.9
Fold Change (TXNRD2): 2
Fold Change (TXNRD3): 7.4
ROS production (ES-2 cells): Dose-dependent ROS production
ROS production (HCT 116 cells): Dose-dependent ROS production
